# Assay results as given in US20040259764A1, “Reticulocyte depletion signatures” (priority 2002, published 2004).
# Where two headings read alike, the source gives them in different places. Marks after values point to notes of the source that are not given here.
# Key:
# [1] = test system: Reticulocyte Depletion Signature (Alas2 and peripherin probes), bone marrow
# Source text: (§1) Compound dosing was based on the acute dose LD50s recorded in published reference or literature sources. […] The MTD (maximum tolerated dose) was then selected as the dose at which the animals […] 5-10% body weight during the 5-day range finding study. […] In addition, the clinical observations must show no or mild clinical signs during the whole of the range-finding study. At the next highest dose, signs and symptoms of adverse effects and exceeding those of the MTD should be seen to occur. Should these criteria not be met, the range-finding study is repeated using a modified dose range.
# (§2) After determination of the MTD and FED for a compound, each compound was dissolved in a vehicle for administration on day 1 of the study (additional daily doses were stored as frozen aliquots from this initial formulation). Each compound was administered to three individual male Sprague-Dawley rats for each of the two doses (MTD and FED) for one of four different times (0.25 day, 1 day, 3 days, and 5 days), yielding a total of up to 24 animals per compound study. Vehicle choice was based on solubility of the compound, effect of food on adsorption, and the vehicles used in the literature reports examined during the FED selection investigations, described above. Generally, the route and vehicle in which the FED was defined are used. When there was a choice of routes and vehicles, oral routes were chosen over injection routes. Many compounds, especially oncolytics, are only administerable intravenously. In such cases, the compound was administered as an intravenous formulation into the tail vein. Orally administered compounds were given dissolved in either water, 1% carboxymethycellulose (CMC) or corn oil. Intravenously and intraperitoneally administered compounds were given in 0.9% saline. Subcutaneously administered compounds were given in corn oil. Animal body weights were determined at 1 day and, where appropriate, at 4 days, before necropsy, and clinical observations were made on a daily basis. Control animals were dosed with vehicle only. Three male animals were used for each dose and time combination used for the compound treatment.
# (§3) Tissue harvest and handling: After the allocated treatment time, the tissues from the animals were harvested. […] All the tissues collected were divided to provide samples for histopathological analyses, and the remainder of each tissue was then snap-frozen.
# (§4) Preparation of enriched mRNA: Punch biopsies were taken from the frozen tissues and were completely homogenized before being processed using the MagNA Pure robot. (Roche Diagnostics Corp., Indianapolis, Ind.) in combination with the MagNA Pure LC RNA Isolation kit II (Roche Diagnostics Corp). The amount of lysis buffer was adjusted to allow 1 ml per 50 mg for liver tissue, or 1 ml per 80 mg for all other tissues. After complete homogenization and before loading of the samples into the 32-well MagNA Pure plate, the samples were syringed 5-6 times using a 20-gauge 3-ml syringe to ensure a smooth solution for robotic processing. Tissue sample processing was performed in duplicate wells (loading 150 μl of homogenized sample and 150 μl of additional lysis buffere to each well) of the MagNA Pure LC, which is programmed to extract mRNA using oligo-dT selection technology into a final elution volume of 100 μl. Poly A(+) RNA sample concentration was performed using a standard ethanol precipitation protocol in the presence of glycogen (50 μg/ml). After precipitation the final purified mRNA sample was resuspended in 7 μl DEPC-treated water and quantified using a Ribogreen high-range assay (Molecular Probes) on the Victor-Wallace II Fluorometer (Perkin-Elmer).
# [2] = test system: Reticulocyte Depletion Signature (Alas2 and peripherin probes), liver
# Source text: as §1, §2, §3, §4
# [3] = test system: Reticulocyte Depletion Signature (Alas2 and peripherin probes), spleen
# Source text: as §1, §2, §3, §4
# [4] = bone marrow data, signature derived from liver, * = p < 0.01
# [5] = liver data, highest training treatment normalised to 100, * = p < 0.01
# [6] = spleen data, signature derived from liver, * = p < 0.01
compound,measurement,setting,value
S=C=Nc1cccc2ccccc12 [1-NAPHTHYL ISOTHIOCYANATE],SPS (Bone Marrow),[1]; [4],0
C[C@]12CCC(=O)C=C1CC[C@@H]1[C@@H]2CC[C@@]2(C)[C@H]1CC[C@]2(C)O [17-METHYLTESTOSTERONE],Signature Projection Score (SPS),[2]; [5],59*
CN(C)c1nc(N(C)C)nc(N(C)C)n1 [ALTRETAMINE],SPS (Bone Marrow),"[1]; rat, in vivo",0
same,SPS (Spleen),"[3]; rat, in vivo",0
CC(C)c1c(C(=O)Nc2ccccc2)c(-c2ccccc2)c(-c2ccc(F)cc2)n1CC[C@@H](O)C[C@@H](O)CC(=O)O [ATORVASTATIN],Signature Projection Score (SPS),"[2]; rat, in vivo",29
C[C@]12CC[C@@H]3c4ccc(O)cc4CC[C@H]3[C@@H]1CC[C@@H]2O [BETA ESTRADIOL],Signature Projection Score (SPS),[2]; [5],27
CC(C)(Oc1ccc(CCNC(=O)c2ccc(Cl)cc2)cc1)C(=O)O [BEZAFIBRATE],Signature Projection Score (SPS),"[2]; rat, in vivo",16
CC(C)(c1ccc(O)cc1)c1ccc(O)cc1 [BISPHENOL A],SPS (Bone Marrow),"[1]; rat, in vivo",0
same,SPS (Spleen),"[3]; rat, in vivo",0
Oc1c(Cl)cc(Cl)cc1Sc1cc(Cl)cc(Cl)c1O [BITHIONOL],SPS (Bone Marrow),"[1]; rat, in vivo",0
same,SPS (Spleen),"[3]; rat, in vivo",27
CS(=O)(=O)OCCCCOS(C)(=O)=O [BUSULFAN],SPS (Bone Marrow),"[1]; rat, in vivo",0
same,SPS (Spleen),"[3]; rat, in vivo",34
same,Signature Projection Score (SPS),"[2]; rat, in vivo",43
ClC(Cl)(Cl)Cl [CARBON TETRACHLORIDE],SPS (Bone Marrow),[1]; [4],0
N.N.O=C([O-])C1(C(=O)[O-])CCC1.[Pt+2] [CARBOPLATIN],SPS (Bone Marrow),[1]; [4],0
same,SPS (Spleen),[3]; [6],0
O=NN(CCCl)C(=O)NCCCl [CARMUSTINE],SPS (Bone Marrow),[1]; [4],0
same,SPS (Spleen),[3]; [6],0
same,Signature Projection Score (SPS),[2]; [5],42
O=C(O)CCCc1ccc(N(CCCl)CCCl)cc1 [CHLORAMBUCIL],SPS (Bone Marrow),[1]; [4],0
same,SPS (Spleen),[3]; [6],0
same,Signature Projection Score (SPS),[2]; [5],33
N.N.[Cl][Pt][Cl] [CISPLATIN],SPS (Bone Marrow),[1]; [4],0
same,SPS (Spleen),[3]; [6],0
COc1cccc2c1C(=O)c1c(O)c3c(c(O)c1C2=O)C[C@@](O)(C(C)=O)C[C@@H]3O[C@H]1C[C@H](N)[C@H](O)[C@H](C)O1 [DAUNORUBICIN],SPS (Bone Marrow),[1]; [4],0
C[C@@H]1C[C@H]2[C@@H]3CCC4=CC(=O)C=C[C@]4(C)[C@@]3(F)[C@@H](O)C[C@]2(C)[C@@]1(O)C(=O)CO [DEXAMETHASONE],Signature Projection Score (SPS),"[2]; rat, in vivo",22
CC/C(=C(/CC)c1ccc(O)cc1)c1ccc(O)cc1 [DIETHYLSTILBESTROL],SPS (Bone Marrow),"[1]; rat, in vivo",0
same,SPS (Spleen),"[3]; rat, in vivo",88*
same,Signature Projection Score (SPS),"[2]; rat, in vivo",33
C[C@H]1O[C@@H](n2cc(F)c(=O)[nH]c2=O)[C@H](O)[C@@H]1O [DOXIFLURIDINE],SPS (Bone Marrow),"[1]; rat, in vivo",0
C[C@]12CC[C@@H]3c4ccc(O)cc4CC[C@H]3[C@@H]1C[C@@H](O)[C@@H]2O [ESTRIOL],Signature Projection Score (SPS),"[2]; rat, in vivo",41
CCO [ETHANOL],SPS (Bone Marrow),"[1]; rat, in vivo",0
C#C[C@]1(O)CC[C@H]2[C@@H]3CCc4cc(O)ccc4[C@H]3CC[C@@]21C [ETHINYLESTRADIOL],Signature Projection Score (SPS),"[2]; rat, in vivo",75*
OC(Cn1cncn1)(Cn1cncn1)c1ccc(F)cc1F [FLUCONAZOLE],Signature Projection Score (SPS),"[2]; rat, in vivo",26
CC(C)n1c(/C=C/C(O)CC(O)CC(=O)O)c(-c2ccc(F)cc2)c2ccccc21 (centres unmarked) [FLUVASTATIN],Signature Projection Score (SPS),"[2]; rat, in vivo",0
Cc1ccc(C)c(OCCCC(C)(C)C(=O)O)c1 [GEMFIBROZIL],Signature Projection Score (SPS),"[2]; rat, in vivo",18
CC1=C(/C=C/C(C)=C/C=C/C(C)=C\C(=O)O)C(C)(C)CCC1 [ISOTRETINOIN],Signature Projection Score (SPS),"[2]; rat, in vivo",23
CC(=O)N1CCN(c2ccc(OCC3COC(Cn4ccnc4)(c4ccc(Cl)cc4Cl)O3)cc2)CC1 (centres unmarked) [KETOCONAZOLE],Signature Projection Score (SPS),"[2]; rat, in vivo",29
Cc1oncc1C(=O)Nc1ccc(C(F)(F)F)cc1 [LEFLUNOMIDE],SPS (Bone Marrow),"[1]; rat, in vivo",0
same,SPS (Spleen),"[3]; rat, in vivo",71*
same,Signature Projection Score (SPS),"[2]; rat, in vivo",22
O=NN(CCCl)C(=O)NC1CCCCC1 [LOMUSTINE],SPS (Bone Marrow),[1]; [4],0
same,SPS (Spleen),[3]; [6],0
same,Signature Projection Score (SPS),[2]; [5],18
CC[C@H](C)C(=O)O[C@H]1C[C@@H](C)C=C2C=C[C@H](C)[C@H](CC[C@@H]3C[C@@H](O)CC(=O)O3)[C@H]21 [LOVASTATIN],Signature Projection Score (SPS),"[2]; rat, in vivo",26
CN(Cc1cnc2nc(N)nc(N)c2n1)c1ccc(C(=O)N[C@@H](CCC(=O)O)C(=O)O)cc1 [METHOTREXATE],SPS (Bone Marrow),"[1]; rat, in vivo",0
same,SPS (Spleen),"[3]; rat, in vivo",148*
same,Signature Projection Score (SPS),"[2]; rat, in vivo",72*
Clc1ccc(COC(Cn2ccnc2)c2ccc(Cl)cc2Cl)c(Cl)c1 (centres unmarked) [MICONAZOLE],Signature Projection Score (SPS),"[2]; rat, in vivo",38
CC#C[C@]1(O)CC[C@H]2[C@@H]3CCC4=CC(=O)CCC4=C3[C@@H](c3ccc(N(C)C)cc3)C[C@@]21C [MIFEPRISTONE],Signature Projection Score (SPS),"[2]; rat, in vivo",24
COc1c(C)c2c(c(O)c1C/C=C(\C)CCC(=O)OCCN1CCOCC1)C(=O)OC2 [MYCOPHENOLATE MOFETIL],SPS (Bone Marrow),[1]; [4],0
"CN(C)C=O [N,N-DIMETHYLFORMAMIDE]",SPS (Bone Marrow),[1]; [4],0
same,SPS (Spleen),[3]; [6],0
CCN(CC)N=O [N-NITROSODIETHYLAMINE],SPS (Bone Marrow),[1]; [4],0
same,SPS (Spleen),[3]; [6],0
C#C[C@]1(OC(C)=O)CC[C@H]2[C@@H]3CCC4=CC(=O)CC[C@@H]4[C@H]3CC[C@@]21C [NORETHINDRONE ACETATE],Signature Projection Score (SPS),"[2]; rat, in vivo",26
O=C1[O][Pt]2([NH][C@@H]3CCCC[C@H]3[NH]2)[O]C1=O [OXALIPLATIN],SPS (Bone Marrow),[1]; [4],18
O=C(c1ccc(OCCN2CCCCC2)cc1)c1c(-c2ccc(O)cc2)sc2cc(O)ccc12 [RALOXIFENE],Signature Projection Score (SPS),"[2]; rat, in vivo",23
CC[C@]1(O)C[C@@H]2CN(CCc3c([nH]c4ccccc34)[C@@](C(=O)OC)(c3cc4c(cc3OC)N(C)[C@H]3[C@@](O)(C(=O)OC)[C@H](OC(C)=O)[C@]5(CC)C=CCN6CC[C@]43[C@@H]65)C2)C1 [VINBLASTINE],SPS (Bone Marrow),"[1]; rat, in vivo",0
CC[C@]1(O)C[C@H]2CN(CCc3c([nH]c4ccccc34)[C@@](C(=O)OC)(c3cc4c(cc3OC)N(C=O)[C@H]3[C@@](O)(C(=O)OC)[C@H](OC(C)=O)[C@]5(CC)C=CCN6CC[C@]43[C@@H]65)C2)C1 [VINCRISTINE],SPS (Bone Marrow),"[1]; rat, in vivo",126*
CCC1=C[C@@H]2CN(C1)Cc1c([nH]c3ccccc13)[C@@](C(=O)OC)(c1cc3c(cc1OC)N(C)[C@H]1[C@@](O)(C(=O)OC)[C@H](OC(C)=O)[C@]4(CC)C=CCN5CC[C@]31[C@@H]54)C2 [VINORELBINE],SPS (Bone Marrow),"[1]; rat, in vivo",132*
